{"source": "patent US20260062422A1", "about": "(Halda Therapeutics OpCo, Inc., priority 2022, published 2026)", "key": {"[1]": {"test_system": "T-Rex 293 cell line SC3 cells having increased expression of androgen receptor protein due to exposure to doxycycline", "assay": "Cellular growth inhibition, T-Rex 293 SC3 cells with doxycycline (androgen receptor induced), CellTiter-Glo", "assay_type": "cell-based", "details": "T-Rex 293 SC3 cells with 10 ng/mL doxycycline (increased androgen receptor expression)", "in_short": "(§1)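 With DMSO (0.5%) vehicle as negative control, compounds treated SC3 cells for 72 h in medium containing charcoal-dextran FBS ± doxycycline. This T-Rex 293 clone expresses transfected wild-type AR on induction. Readout: CellTiter-Glo 2.0; GI50 by nonlinear regression.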"}, "T47D cells": {"test_system": "T47D cells", "assay": "Cellular growth inhibition assay for T47D cells, CellTiter-Glo", "assay_type": "cell-based, human", "details": "72 hours treatment, CellTiter-Glo 2.0 cell viability", "in_short": "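Growth inhibition as GI50, fitted with four parameters to CellTiter-Glo luminescence after 72 h of compound exposure (0.5% DMSO). Cells were T47D, grown in insulin-supplemented (0.2 units/mL) DMEM with 10% FBS and treated one day post-seeding.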"}, "[2]": {"test_system": "T-Rex 293 cell line SC3 cells lacking increased expression of androgen receptor protein", "assay": "Cellular growth inhibition, T-Rex 293 SC3 cells without doxycycline, CellTiter-Glo", "assay_type": "cell-based", "details": "T-Rex 293 SC3 cells not exposed to doxycycline, CellTiter-Glo 2.0", "in_short": "as §1"}, "VCaP cells": {"test_system": "VCaP cells", "assay": "Cellular growth inhibition assay for VCaP cells, CellTiter-Glo", "assay_type": "cell-based, human", "details": "72 hours treatment, CellTiter-Glo 2.0", "in_short": "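GI50 values come from four-parameter curve fits of luminescence data normalized to a zero baseline. Compound, in medium with 0.5% DMSO, was added one day after plating and left for 72 h before CellTiter-Glo 2.0 addition.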"}}, "data": [{"molecule": "Cc1sc2c(c1C)C(c1ccc(CN3CC[C@@]4(CCCN(c5ncc(C(=O)N[C@H]6C(C)(C)[C@H](Oc7ccc(C#N)c(Cl)c7)C6(C)C)cn5)C4)C3)cc1)=N[C@@H](Cc1ncco1)c1nnc(C)n1-2", "note": "[Compound I-144]", "values": [{"measurement": "GI50", "setting": "[1]; 72 h", "result": "< 500", "unit": "nM"}, {"measurement": "GI50", "setting": "T47D cells; Homo sapiens, T47D, 72 h", "result": "500 to 1500", "unit": "nM"}, {"measurement": "GI50", "setting": "[2]; 72 h", "result": "< 500", "unit": "nM"}, {"measurement": "GI50", "setting": "VCaP cells; Homo sapiens, VCaP, 72 h", "result": "< 500", "unit": "nM"}]}, {"molecule": "Cc1sc2c(c1C)C(c1ccc(-n3nccc3C3CCN(c4ncc(C(=O)N[C@H]5C(C)(C)[C@H](Oc6ccc(C#N)c(Cl)c6)C5(C)C)cn4)CC3)cc1)=N[C@@H](Cc1ncco1)c1nnc(C)n1-2", "note": "[Compound I-455]", "values": [{"measurement": "GI50", "setting": "[1]; 72 h", "result": "< 500", "unit": "nM"}, {"measurement": "GI50", "setting": "T47D cells; Homo sapiens, T47D, 72 h", "result": "> 3000", "unit": "nM"}, {"measurement": "GI50", "setting": "[2]; 72 h", "result": "> 3000", "unit": "nM"}, {"measurement": "GI50", "setting": "VCaP cells; Homo sapiens, VCaP, 72 h", "result": "< 500", "unit": "nM"}]}, {"molecule": "Cc1sc2c(c1C)C(c1ccc(CCCOC3CCN(c4ncc(C(=O)N[C@H]5C(C)(C)[C@H](Oc6ccc(C#N)c(Cl)c6)C5(C)C)cn4)CC3)cc1)=N[C@@H](Cc1cccnc1)c1nnc(C)n1-2", "note": "[Compound I-214]", "values": [{"measurement": "GI50", "setting": "[1]; 72 h", "result": "< 500", "unit": "nM"}, {"measurement": "GI50", "setting": "T47D cells; Homo sapiens, T47D, 72 h", "result": "< 500", "unit": "nM"}, {"measurement": "GI50", "setting": "[2]; 72 h", "result": "< 500", "unit": "nM"}, {"measurement": "GI50", "setting": "VCaP cells; Homo sapiens, VCaP, 72 h", "result": "< 500", "unit": "nM"}]}, {"molecule": "Cc1sc2c(c1C)C(c1ccc(C(=O)N3CC[C@]4(CCCN(c5ncc(C(=O)N[C@H]6C(C)(C)[C@H](Oc7ccc(C#N)c(Cl)c7)C6(C)C)cn5)C4)C3)cc1)=N[C@H](Cc1ncco1)c1nnc(C)n1-2", "note": "[Compound I-259]", "values": [{"measurement": "GI50", "setting": "[1]; 72 h", "result": "< 500", "unit": "nM"}, {"measurement": "GI50", "setting": "T47D cells; Homo sapiens, T47D, 72 h", "result": "500 to 1500", "unit": "nM"}, {"measurement": "GI50", "setting": "[2]; 72 h", "result": "> 3000", "unit": "nM"}, {"measurement": "GI50", "setting": "VCaP cells; Homo sapiens, VCaP, 72 h", "result": "1500 to 3000", "unit": "nM"}]}, {"molecule": "CNc1ccc2c(n1)C(c1ccc(OC3CC4(CCCN(c5ncc(C(=O)N[C@H]6C(C)(C)[C@H](Oc7ccc(C#N)c(Cl)c7)C6(C)C)cn5)C4)C3)cc1)=NCc1onc(C)c1-2", "note": "[Compound I-231, N-[3-(3-chloro-4-cyano-phenoxy)-2,2,4,4-tetramethyl-cyclobutyl]-2-[2-[4-[3-methyl-12-(methylamino)-5-oxa-4,8,11-triazatricyclo [8.4.0.02,6]tetradeca-1(10),2(6),3,8,11,13-hexaen-9-yl]phenoxy]-6-azaspiro[3.5]nonan-6-yl]pyrimidine-5-carboxamide]", "values": [{"measurement": "GI50", "setting": "[1]; 72 h", "result": "< 500", "unit": "nM"}, {"measurement": "GI50", "setting": "T47D cells; Homo sapiens, T47D, 72 h", "result": "> 3000", "unit": "nM"}, {"measurement": "GI50", "setting": "[2]; 72 h", "result": "> 3000", "unit": "nM"}, {"measurement": "GI50", "setting": "VCaP cells; Homo sapiens, VCaP, 72 h", "result": "> 3000", "unit": "nM"}]}, {"molecule": "Cc1sc2c(c1C)C(c1ccc(CCNC(=O)NCc3ncc(C(=O)N[C@H]4C(C)(C)[C@H](Oc5ccc(C#N)c(Cl)c5)C4(C)C)cn3)cc1)=N[C@H](Cc1ncco1)c1nnc(C)n1-2", "note": "[Compound I-330]", "values": [{"measurement": "GI50", "setting": "[1]; 72 h", "result": "< 500", "unit": "nM"}, {"measurement": "GI50", "setting": "T47D cells; Homo sapiens, T47D, 72 h", "result": "1500 to 3000", "unit": "nM"}, {"measurement": "GI50", "setting": "[2]; 72 h", "result": "> 3000", "unit": "nM"}, {"measurement": "GI50", "setting": "VCaP cells; Homo sapiens, VCaP, 72 h", "result": "500 to 1500", "unit": "nM"}]}, {"molecule": "CC[C@@H]1N=C(c2ccc(CC3CCC4(C3)CN(c3ncc(C(=O)N[C@H]5C(C)(C)[C@H](Oc6ccc(C#N)c(Cl)c6)C5(C)C)cn3)CCO4)cc2)c2c(sc(C)c2C)-n2c(C)nnc21", "note": "(stereo partly shown) [Compound I-613]", "values": [{"measurement": "GI50", "setting": "[1]; 72 hours", "result": "< 500", "unit": "nM"}, {"measurement": "GI50", "setting": "T47D cells", "result": "500 to 1500", "unit": "nM"}, {"measurement": "GI50", "setting": "[2]; 72 hours", "result": "> 3000", "unit": "nM"}, {"measurement": "GI50", "setting": "VCaP cells", "result": "< 500", "unit": "nM"}]}, {"molecule": "Cc1sc2c(c1C)C(c1ccc(CC3CC4(CCN(c5ccc(C(=O)N(C)[C@H]6C(C)(C)[C@H](Oc7ccc(C#N)c(Cl)c7)C6(C)C)cn5)CC4)C3)cc1)=N[C@@H](C)c1nnc(C)n1-2", "note": "[Compound I-589]", "values": [{"measurement": "GI50", "setting": "[1]; 72 h", "result": "< 500", "unit": "nM"}, {"measurement": "GI50", "setting": "T47D cells; Homo sapiens, T47D, 72 h", "result": "500 to 1500", "unit": "nM"}, {"measurement": "GI50", "setting": "[2]; 72 h", "result": "> 3000", "unit": "nM"}, {"measurement": "GI50", "setting": "VCaP cells; Homo sapiens, VCaP, 72 h", "result": "< 500", "unit": "nM"}]}, {"molecule": "COC[C@@H]1N=C(c2ccc(OC3CC4(CCCN(c5ncc(C(=O)N[C@H]6C(C)(C)[C@H](Oc7ccc(C#N)c(Cl)c7)C6(C)C)cn5)C4)C3)cc2)c2c(sc(C)c2C)-n2c(C)nnc21", "note": "[Compound I-568]", "values": [{"measurement": "GI50", "setting": "[1]; 72 h", "result": "< 500", "unit": "nM"}, {"measurement": "GI50", "setting": "T47D cells; Homo sapiens, T47D, 72 h", "result": "< 500", "unit": "nM"}, {"measurement": "GI50", "setting": "[2]; 72 h", "result": "> 3000", "unit": "nM"}, {"measurement": "GI50", "setting": "VCaP cells; Homo sapiens, VCaP, 72 h", "result": "< 500", "unit": "nM"}]}, {"molecule": "Cc1sc2c(c1C)C(c1ccc(C(F)(F)N3CC4(CCN(c5ncc(C(=O)N[C@H]6C(C)(C)[C@H](Oc7ccc(C#N)c(Cl)c7)C6(C)C)cn5)CC4)C3)cc1)=N[C@@H](Cc1ncco1)c1nnc(C)n1-2", "note": "[Compound I-504]", "values": [{"measurement": "GI50", "setting": "[1]; 72 h", "result": "< 500", "unit": "nM"}, {"measurement": "GI50", "setting": "T47D cells; Homo sapiens, T47D, 72 h", "result": "< 500", "unit": "nM"}, {"measurement": "GI50", "setting": "[2]; 72 h", "result": "> 3000", "unit": "nM"}, {"measurement": "GI50", "setting": "VCaP cells; Homo sapiens, VCaP, 72 h", "result": "< 500", "unit": "nM"}]}]}
